Results from patent US7612087B2, “Heterocyclic compounds as inhibitors of beta-lactamases” (Novexel, priority 2002, dated 2009).
pIC50: −log10 of the molar value. Counter-ions that a name gives are not always drawn.

Tests used:
Serratia 301HT6 = assay: MIC, micro-dilution in liquid medium, β-lactamine with product at 5 mg/l; type: cell-based; details: compound at 5 mg/l; Trial 10, 301HT6 Serratia; 24 hours at 37° C.
In short: (§1)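 Broth micro-dilution MIC of a β-lactamine series, each dilution containing a fixed 5 mg/l of test product. Inoculated plates incubated 24 h at 37 °C. MIC in mg/l taken as lowest concentration without visible bacterial growth.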

[1] = tested on: E. cloacae 293HT6 (Class C); assay: as above; type: cell-based; details: compound at 5 mg/l, 24 hours at 37° C.
In short: as §1

E. coli 250HT21 (Tem1) = assay: as above; type: cell-based; details: compound at 5 mg/l, 24 hours at 37° C.
In short: as §1

E. coli 250HT22 (Tem2) = assay: as above; type: cell-based; details: compound at 5 mg/l, 24 hours at 37° C.
In short: as §1

[2] = tested on: P. aeruginosa 391HT8 (PSE); assay: as above; type: cell-based; details: compound at 5 mg/l, 24 hours at 37° C.
In short: as §1

E. coli 250SJ1 (Tem7) = assay: as above; type: cell-based; details: compound at 5 mg/l, 24 hours at 37° C.
In short: as §1

[3] = tested on: E. coli 250HT23 (Class D); assay: as above; type: cell-based; details: compound at 5 mg/l, 24 hours at 37° C.
In short: as §1

[4] = tested on: P. aeruginosa 391HT7 (PSE); assay: as above; type: cell-based; details: compound at 5 mg/l, 24 hours at 37° C.
In short: as §1

E. coli 250BE1 (SHV4) = assay: as above; type: cell-based; details: compound at 5 mg/l, 24 hours at 37° C.
In short: as §1

E. coli 250HT26 (SHV1) = assay: as above; type: cell-based; details: compound at 5 mg/l, 24 hours at 37° C.
In short: as §1

[5] = tested on: S. aureus 011GO66 (PeniR); assay: as above; type: cell-based; details: compound at 5 mg/l, 24 hours at 37° C.
In short: as §1

E. coli 250CF1 (Tem3) = assay: microbe, parasite or virus in culture; type: cell-based; details: compound at 5 mg/l, 24 hours at 37° C.
In short: as §1

β-lactamase P99 = target: T1, β-lactamase P99 (Enterobacter cloacae, UniProt P05364); assay: biochemical
T1 construct: The β-lactamases are isolated from bacterial strains which are resistant to penicillins and cephalosporins; endogenous in cells; host or cells: Enterobacter cloacae 293HT6 (natural producer; French-press lysate, 100,000 g supernatant)
In short: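 P99 β-lactamase, taken from the soluble fraction of an Enterobacter cloacae 293HT6 lysate, was assayed at 37° C. in 50 mM sodium phosphate buffer pH7.0 with 100 μM Nitrocefin as the chromogenic substrate. Hydrolysis was followed kinetically at 485 nm at initial speed, with and without a 5 mn enzyme–inhibitor preincubation. Inhibitors were tested at 6 or 8 concentrations in duplicate, and IC50 was fitted with GraFit.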

β-lactamase TEM1 = target: T2, β-lactamase TEM1 (Escherichia coli, UniProt P62593); assay: Inhibition of isolated β-lactamase Tem-1 (Nitrocefin hydrolysis); type: biochemical, E.coli 250HT21; details: 100 μM Nitrocefin, 50 mM sodium phosphate buffer pH7.0, 37° C.
T2 construct: The β-lactamases are isolated from bacterial strains which are resistant to penicillins and cephalosporins; endogenous in cells; host or cells: E. coli 250HT21 (natural producer; French-press lysate, 100,000 g supernatant)
In short: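 TEM-1 from soluble extract of E. coli 250HT21, normalized enzyme, 100 μM Nitrocefin in 50 mM sodium phosphate pH 7.0 at 37 °C. Initial-rate hydrolysis read kinetically at 485 nm, with and without 5 min enzyme–inhibitor preincubation. CI50 from 6 or 8 concentrations in duplicate.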

T2 sequence (P62593 24-286 limits assumed): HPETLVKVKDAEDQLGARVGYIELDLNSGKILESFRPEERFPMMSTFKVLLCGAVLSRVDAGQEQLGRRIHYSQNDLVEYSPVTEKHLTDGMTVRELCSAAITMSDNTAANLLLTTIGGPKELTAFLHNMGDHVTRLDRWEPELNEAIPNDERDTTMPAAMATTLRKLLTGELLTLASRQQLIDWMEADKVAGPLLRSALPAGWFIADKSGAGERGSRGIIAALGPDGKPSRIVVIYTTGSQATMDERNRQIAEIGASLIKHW
T1 sequence (P05364 21-381): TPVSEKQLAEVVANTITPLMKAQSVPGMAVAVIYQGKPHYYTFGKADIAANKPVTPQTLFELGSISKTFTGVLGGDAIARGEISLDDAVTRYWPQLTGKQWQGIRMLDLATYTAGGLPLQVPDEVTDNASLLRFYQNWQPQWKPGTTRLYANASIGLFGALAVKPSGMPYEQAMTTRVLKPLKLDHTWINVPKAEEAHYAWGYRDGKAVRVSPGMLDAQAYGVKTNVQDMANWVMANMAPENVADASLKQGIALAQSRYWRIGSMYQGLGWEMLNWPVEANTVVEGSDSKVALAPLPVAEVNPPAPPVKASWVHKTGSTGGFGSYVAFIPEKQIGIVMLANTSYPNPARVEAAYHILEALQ

NC(=O)COC(=O)C1CCC2CN1C(=O)N2OS(=O)(=O)O (stereo not drawn) [Example 48, sodium salt of trans 2-amino-2-oxoethyl 7-oxo-6-(sulphooxy)-1,6-diazabicyclo[3.2.1]octane-2-carboxylate]
MIC of Cefotaxime in combination with the compound (Serratia 301HT6): <=0.04 μg/ml | MIC of Piperacillin in combination with the compound (Serratia 301HT6): 0.6 µg/mL | MIC of Piperacillin in combination with the compound ([1]; Trial 9, 293HT6 Class): 2.5 µg/mL | MIC of Cefotaxime in combination with the compound ([1]; Trial 9, 293HT6 E. cloacae Class C): 0.15 µg/mL | MIC of Cefotaxime in combination with the compound (E. coli 250HT21 (Tem1); Trial 2, 250HT21 E. coli Tem1): <=0.04 μg/ml | MIC of Piperacillin in combination with the compound (E. coli 250HT21 (Tem1); Trial 2, 250HT21 Tem1): 0.6 µg/mL | MIC of Cefotaxime in combination with the compound (E. coli 250HT22 (Tem2); Trial 3, 250HT22 E. coli Tem2): <=0.04 μg/ml | MIC of Piperacillin in combination with the compound (E. coli 250HT22 (Tem2); Trial 3, 250HT22 Tem2): 2.5 µg/mL | MIC of Cefotaxime in combination with the compound ([2]; Trial 12, 391HT8 P. aeruginosa PSE): >40 µg/mL | MIC of Piperacillin in combination with the compound ([2]; Trial 12, 391HT8 PSE): >40 µg/mL | MIC of Cefotaxime in combination with the compound (E. coli 250SJ1 (Tem7); Trial 5, 250SJ1 E. coli Tem7): <=0.04 μg/ml | MIC of Piperacillin in combination with the compound (E. coli 250SJ1 (Tem7); Trial 5, 250SJ1 Tem7): 1.2 µg/mL | MIC of Piperacillin in combination with the compound ([3]; Trial 8, 250HT23 Class D): 5 µg/mL | MIC of Cefotaxime in combination with the compound ([3]; Trial 8, 250HT23 E. coli Class D): <=0.04 μg/ml | MIC of Cefotaxime in combination with the compound ([4]; Trial 11, 391HT7 P. aeruginosa PSE): 40 µg/mL | MIC of Piperacillin in combination with the compound ([4]; Trial 11, 391HT7 PSE): >40 µg/mL | MIC of Cefotaxime in combination with the compound (E. coli 250BE1 (SHV4); Trial 7, 250BE1 E. coli SHV4): 0.08 µg/mL | MIC of Piperacillin in combination with the compound (E. coli 250BE1 (SHV4); Trial 7, 250BE1 SHV4): 2.5 µg/mL | MIC of Cefotaxime in combination with the compound (E. coli 250HT26 (SHV1); Trial 6, 250HT26 E. coli SHV1): <=0.04 μg/ml | MIC of Piperacillin in combination with the compound (E. coli 250HT26 (SHV1); Trial 6, 250HT26 SHV1): 1.2 µg/mL | MIC of Cefotaxime in combination with the compound ([5]; Trial 1, 011GO66 S. aureus PeniR): 2.5 µg/mL | MIC of Piperacillin in combination with the compound ([5]; Trial 1, 011GO66 peniR): 1.2 µg/mL | MIC of Cefotaxime in combination with the compound (E. coli 250CF1 (Tem3); Trial 4, 250CF1 E. coli Tem3): <=0.04 μg/ml | MIC of Piperacillin in combination with the compound (E. coli 250CF1 (Tem3); Trial 4, 250CF1 Tem3): 1.2 µg/mL | pIC50 (β-lactamase P99): 6.92 | IC50 (β-lactamase TEM1): 15 nM
